Assay results as given in patent US12685312B2, “Sulfonamide apyrase inhibitors” (Texas Crop Science, Inc., priority 2022, dated 2026).

Test system: apyrase
Assay: Screen for apyrase inhibitors (Method 1, in vitro phosphate-release absorbance assay)
Assay type: biochemical
Settings: inhibitor conc at 1 mM stock, 1 hr room temperature, absorbance 630 nm; rounded average of two assay results
Outline: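 Phosphate-release colorimetric assay (Windsor method) in 60 mM Hepes, 3 mM MgCl2, 3 mM CaCl2, 3 mM ATP, pH 6.5, with compound or DMSO control added. Released phosphate developed with ammonium molybdate and ascorbic acid/TCA, then stopped with citrate/acetic acid.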

`O=C(Nc1cccc(C(F)(F)F)c1)c1cccc(S(=O)(=O)Nc2ccccc2F)c1` [I-285, 3-(N-(2-fluorophenyl)sulfamoyl)-N-(3-(trifluoromethyl)phenyl)benzamide] was tested. Which “% Inhibition of Apyrase” value did it give?
The value was 17%.

With `O=C(NCCCCO)c1cccc(S(=O)(=O)Nc2ccc(Br)cc2)c1` [I-286, 3-(N-(4-bromophenyl)sulfamoyl)-N-(4-hydroxybutyl)benzamide] as the compound, how does the “% Inhibition of Apyrase” value read?
Its value is 13%.

Which “% Inhibition of Apyrase” value does the source give for `CCCNC(=O)CN(CCC)C(=O)c1cccc(S(=O)(=O)Nc2ccc(Br)cc2)c1` [I-287, 3-(N-(4-bromophenyl)sulfamoyl)-N-(2-oxo-2-(propylamino)ethyl)-N-propylbenzamide] here?
The value was 11%.

How did the “% Inhibition of Apyrase” value turn out when `N#Cc1cccc(NC(=O)c2cccc(NS(=O)(=O)c3ccc(Cl)c(Cl)c3)c2)c1` [I-316, N-(3-cyanophenyl)-3-((3,4-dichlorophenyl)sulfonamido)benzamide] was run?
The value was 69%.

`Cc1ccc(F)cc1S(=O)(=O)Nc1cccc(C(=O)Nc2cccc(C#N)c2)c1` [I-318, N-(3-cyanophenyl)-3-((5-fluoro-2-methylphenyl)sulfonamido)benzamide] was tested. Which “% Inhibition of Apyrase” value did it give?
The value was 68%.

With `CC(=O)c1cccc(S(=O)(=O)Nc2cccc(C(=O)Nc3cccc(C(F)(F)F)c3)c2)c1` [I-319, 3-((3-acetylphenyl)sulfonamido)-N-(3-(trifluoromethyl)phenyl)benzamide] as the compound, how does the “% Inhibition of Apyrase” value read?
Its value is 67%.

With `Cc1cccc(NC(=O)c2cccc(NS(=O)(=O)c3ccc4c(c3)OCCO4)c2)c1C` [I-320, 3-((2,3-dihydrobenzo[b][1,4]dioxine)-6-sulfonamido)-N-(2,3-dimethylphenyl)benzamide] as the compound, how does the “% Inhibition of Apyrase” value read?
Its value is 62%.

How did the “% Inhibition of Apyrase” value turn out when `O=C(Nc1cccc(C(F)(F)F)c1)c1cccc(NS(=O)(=O)c2ccc(Cl)c(C(=O)O)c2)c1` [I-321, 2-chloro-5-(N-(3-((3-(trifluoromethyl)phenyl)carbamoyl)phenyl)sulfamoyl)benzoic acid] was run?
Its value is 57%.

For `O=C(Nc1cccc(C(F)(F)F)c1)c1cccc(NS(=O)(=O)c2ccc(Br)c(C(=O)O)c2)c1` [I-322, 2-bromo-5-(N-(3-((3-(trifluoromethyl)phenyl)carbamoyl)phenyl)sulfamoyl)benzoic acid], which “% Inhibition of Apyrase” value is on record?
The value was 47%.

For `COc1ccc(OC)c(S(=O)(=O)Nc2cccc(C(=O)Nc3cccc(C(F)(F)F)c3)c2)c1` [I-323, 3-((2,5-dimethoxyphenyl)sulfonamido)-N-(3-(trifluoromethyl)phenyl)benzamide], which “% Inhibition of Apyrase” value is on record?
Its value is 42%.

With `O=C(O)CCc1ccc(S(=O)(=O)Nc2cccc(C(=O)Nc3cccc(C(F)(F)F)c3)c2)cc1` [I-324, 3-(4-(N-(3-((3-(trifluoromethyl)phenyl)carbamoyl)phenyl)sulfamoyl)phenyl)propanoic acid] as the compound, how does the “% Inhibition of Apyrase” value read?
Its value is 41%.

With `NC(=O)c1cc(NC(=O)c2cccc(NS(=O)(=O)c3ccc4c(c3)OCCO4)c2)ccc1Cl` [I-325, N-(3-carbamoyl-4-chlorophenyl)-3-((2,3-dihydrobenzo[b][1,4]dioxine)-6-sulfonamido)benzamide] as the compound, how does the “% Inhibition of Apyrase” value read?
The value was 34%.

For `O=C(Nc1cccc(C(F)(F)F)c1)c1cccc(NS(=O)(=O)c2ccccc2F)c1` [I-326, 3-((2-fluorophenyl)sulfonamido)-N-(3-(trifluoromethyl)phenyl)benzamide], which “% Inhibition of Apyrase” value is on record?
The value was 13%.

For `O=C(/C=C/c1cccc(Cl)c1)Nc1cccc(S(=O)(=O)Nc2ccc(Br)cc2)c1` [I-329, (E)-N-(3-(N-(4-bromophenyl)sulfamoyl)phenyl)-3-(3-chlorophenyl)acrylamide], which “% Inhibition of Apyrase” value is on record?
Its value is 65%.

With `COc1ccc(CC(=O)Nc2cccc(S(=O)(=O)Nc3ccc(Br)cc3)c2)cc1F` [I-330, N-(3-(N-(4-bromophenyl)sulfamoyl)phenyl)-2-(3-fluoro-4-methoxyphenyl)acetamide] as the compound, how does the “% Inhibition of Apyrase” value read?
Its value is 65%.

Which “% Inhibition of Apyrase” value does the source give for `COc1ccccc1C(=O)Nc1cccc(S(=O)(=O)Nc2ccc(Br)cc2)c1` [I-331, N-(3-(N-(4-bromophenyl)sulfamoyl)phenyl)-2-methoxybenzamide] here?
Its value is 64%.

Which “% Inhibition of Apyrase” value does the source give for `N#Cc1ccc(C(=O)Nc2cccc(S(=O)(=O)Nc3ccc(Br)cc3)c2)cc1` [I-332, N-(3-(N-(4-bromophenyl)sulfamoyl)phenyl)-4-cyanobenzamide] here?
Its value is 60%.

`COc1ccc(C(=O)Nc2cccc(S(=O)(=O)Nc3ccc(Br)cc3)c2)cc1OC` [I-333, N-(3-(N-(4-bromophenyl)sulfamoyl)phenyl)-3,4-dimethoxybenzamide] was tested. Which “% Inhibition of Apyrase” value did it give?
Its value is 48%.

Which “% Inhibition of Apyrase” value does the source give for `C[S+]([O-])c1ccc(C(=O)Nc2cccc(S(=O)(=O)Nc3ccc(Br)cc3)c2)cc1` (stereo not drawn) [I-334, N-(3-(N-(4-bromophenyl)sulfamoyl)phenyl)-4-(methylsulfinyl)benzamide] here?
The value was 40%.

Which “% Inhibition of Apyrase” value does the source give for `Cn1cc(C(=O)Nc2cccc(S(=O)(=O)Nc3ccc(Br)cc3)c2)cn1` [I-335, N-(3-(N-(4-bromophenyl)sulfamoyl)phenyl)-1-methyl-1H-pyrazole-4-carboxamide] here?
Its value is 30%.

`O=C(Nc1cccc(NS(=O)(=O)c2c(Br)cc3[nH]c(=O)oc3c2Cl)c1)c1ccc(Br)cc1` [I-337, 4-bromo-N-(3-((5-bromo-7-chloro-2-oxo-2,3-dihydrobenzo[d]oxazole)-6-sulfonamido)phenyl)benzamide] was tested. Which “% Inhibition of Apyrase” value did it give?
Its value is 73%.

With `COc1ccc(Br)c(C(=O)Nc2cccc(NS(=O)(=O)c3ccc(C)c(C)c3)c2)c1` [I-338, 2-bromo-N-(3-((3,4-dimethylphenyl)sulfonamido)phenyl)-5-methoxybenzamide] as the compound, how does the “% Inhibition of Apyrase” value read?
The value was 69%.

For `COc1cc(C(=O)Nc2cccc(NS(=O)(=O)c3ccc(C)c(C)c3)c2)cc2c1OCCO2` [I-339, N-(3-((3,4-dimethylphenyl)sulfonamido)phenyl)-8-methoxy-2,3-dihydrobenzo[b][1,4]dioxine-6-carboxamide], which “% Inhibition of Apyrase” value is on record?
Its value is 69%.

With `O=C(Nc1cccc(NS(=O)(=O)c2ccc(Cl)cc2)c1)c1ccc2[nH]nnc2c1` [I-340, N-(3-((4-chlorophenyl)sulfonamido)phenyl)-1H-benzo[d][1,2,3]triazole-5-carboxamide] as the compound, how does the “% Inhibition of Apyrase” value read?
The value was 65%.

For `COc1ccccc1C(=O)Nc1cccc(NS(=O)(=O)c2ccc(C)c(C)c2)c1` [I-341, N-(3-((3,4-dimethylphenyl)sulfonamido)phenyl)-2-methoxybenzamide], which “% Inhibition of Apyrase” value is on record?
Its value is 64%.

For `O=C(Nc1cccc(NS(=O)(=O)c2ccc(Cl)cc2)c1)c1ccc2[nH]cnc2c1` [I-342, N-(3-((4-chlorophenyl)sulfonamido)phenyl)-1H-benzo[d]imidazole-5-carboxamide], which “% Inhibition of Apyrase” value is on record?
Its value is 63%.

`O=C(Nc1cccc(NS(=O)(=O)c2ccc(Cl)cc2)c1)c1ccc(F)cc1F` [I-343, N-(3-((4-chlorophenyl)sulfonamido)phenyl)-2,4-difluorobenzamide] was tested. Which “% Inhibition of Apyrase” value did it give?
Its value is 59%.

`O=C(Nc1cccc(NS(=O)(=O)c2ccc(Cl)cc2)c1)c1ccccc1` [I-344, N-(3-((4-chlorophenyl)sulfonamido)phenyl)benzamide] was tested. Which “% Inhibition of Apyrase” value did it give?
The value was 56%.

Which “% Inhibition of Apyrase” value does the source give for `Cc1cccc(C(=O)Nc2cccc(NS(=O)(=O)c3ccccc3)c2)c1[N+](=O)[O-]` [I-345, 3-methyl-2-nitro-N-(3-(phenylsulfonamido)phenyl)benzamide] here?
The value was 53%.

With `Cc1ccc(S(C)(=O)=O)cc1C(=O)Nc1cccc(NS(=O)(=O)c2ccc(Cl)cc2)c1` [I-346, N-(3-((4-chlorophenyl)sulfonamido)phenyl)-2-methyl-5-(methylsulfonyl)benzamide] as the compound, how does the “% Inhibition of Apyrase” value read?
Its value is 53%.

`Cc1ccc(C(=O)Nc2cccc(NS(=O)(=O)c3ccccc3)c2)cc1[N+](=O)[O-]` [I-347, 4-methyl-3-nitro-N-(3-(phenylsulfonamido)phenyl)benzamide] was tested. Which “% Inhibition of Apyrase” value did it give?
Its value is 52%.

With `CCCOc1ccc(C(=O)Nc2cccc(NS(=O)(=O)c3ccc(C)c(C)c3)c2)cc1OC` [I-348, N-(3-((3,4-dimethylphenyl)sulfonamido)phenyl)-3-methoxy-4-propoxybenzamide] as the compound, how does the “% Inhibition of Apyrase” value read?
Its value is 48%.

`COc1cc(Cl)c(C)cc1NC(=O)c1ccccc1S(=O)(=O)N(C)c1ccccc1` [I-350, N-(4-chloro-2-methoxy-5-methylphenyl)-2-(N-methyl-N-phenylsulfamoyl)benzamide] was tested. Which “% Inhibition of Apyrase” value did it give?
Its value is 66%.

How did the “% Inhibition of Apyrase” value turn out when `CN(c1ccccc1)S(=O)(=O)c1ccccc1C(=O)Nc1ccc2c(c1)OCO2` [I-351, N-(benzo[d][1,3]dioxol-5-yl)-2-(N-methyl-N-phenylsulfamoyl)benzamide] was run?
Its value is 53%.

With `C#Cc1cccc(NC(=O)c2ccccc2S(=O)(=O)N(C)c2ccccc2)c1` [I-352, N-(3-ethynylphenyl)-2-(N-methyl-N-phenylsulfamoyl)benzamide] as the compound, how does the “% Inhibition of Apyrase” value read?
Its value is 48%.

Which “% Inhibition of Apyrase” value does the source give for `O=C(Nc1ccc(SC(F)F)cc1)c1ccccc1S(=O)(=O)N1CCCCC1` [I-353, N-(4-((difluoromethyl)thio)phenyl)-2-(piperidin-1-ylsulfonyl)benzamide] here?
Its value is 44%.

Which “% Inhibition of Apyrase” value does the source give for `O=C(Nc1ccc(OC(F)F)c(Cl)c1)c1ccccc1S(=O)(=O)N1CCCCC1` [I-354, N-(3-chloro-4-(difluoromethoxy)phenyl)-2-(piperidin-1-ylsulfonyl)benzamide] here?
Its value is 43%.

Which “% Inhibition of Apyrase” value does the source give for `CN(c1ccccc1)S(=O)(=O)c1ccccc1C(=O)Nc1ccc(Cl)cc1F` [I-355, N-(4-chloro-2-fluorophenyl)-2-(N-methyl-N-phenylsulfamoyl)benzamide] here?
Its value is 43%.

With `O=C(Nc1cccc(C(F)(F)F)c1)c1ccccc1S(=O)(=O)N1CCCCC1` [I-356, 2-(piperidin-1-ylsulfonyl)-N-(3-(trifluoromethyl)phenyl)benzamide] as the compound, how does the “% Inhibition of Apyrase” value read?
The value was 10%.

With `O=C(Nc1ccc(S(=O)(=O)N2CCCC2)cc1)c1ccccc1NS(=O)(=O)c1cccc(C(F)(F)F)c1` [I-373, N-(4-(pyrrolidin-1-ylsulfonyl)phenyl)-2-((3-(trifluoromethyl)phenyl)sulfonamido) benzamide] as the compound, how does the “% Inhibition of Apyrase” value read?
The value was 71%.

For `O=C(Nc1ccc(F)cc1)c1ccccc1NS(=O)(=O)c1cccc(C(F)(F)F)c1` [I-374, N-(4-fluorophenyl)-2-((3-(trifluoromethyl)phenyl)sulfonamido) benzamide], which “% Inhibition of Apyrase” value is on record?
Its value is 48%.

Which “% Inhibition of Apyrase” value does the source give for `O=C(c1ccccc1NS(=O)(=O)c1cccc(C(F)(F)F)c1)N1CCc2ccccc21` [I-375, N-(2-(indoline-1-carbonyl)phenyl)-3-(trifluoromethyl)benzenesulfonamide] here?
The value was 43%.
